# Data published in the OPERA property sets (Mansouri et al. 2018).
# Where a SMILES comes first, the peptide text is derived from it.
row,logP,Structure (SMILES)
1,-1.66,CCC(C)C(NC(=O)C(CC(C)C)NC(=O)C(N)C(C)O)C(=O)O (stereo not drawn) (H-Thr-Leu-Ile-OH; configuration not given here)
2,-0.17,COCCCNc1ncnc2c1ncn2C1OC(CO)C(O)C1O (centres undefined)
3,4.13,O=c1cc(-c2ccc(Cl)cc2Cl)oc2ccccc12
4,2.3,Nc1nnnn1-c1cc(Cl)c(Cl)cc1Cl
5,1.14,O=c1cc(CSc2ccccn2)occ1O
6,4.15,COC(=O)C1=C(C)NC(C)=C(C(=O)OC(C)C)C1c1cccc2c1OCO2 (centres undefined)
7,2.28,CCCN(C)CC(=O)Nc1c(C)cccc1C
8,1.71,Cc1cc(=O)[nH]nc1/C=C/c1ccc(-n2ccnc2)cc1
9,2.88,O=C1c2ccccc2-c2nnc(-c3ccc(O)cc3)cc21
10,4.24,CN1CCN2c3ccccc3Cc3ccccc3C2C1 (centres undefined)
11,-0.02,C[C@@H]1CN(c2c(F)c(N)c3c(=O)c(C(=O)O)cn(C4CC4)c3c2F)C[C@H](C)N1
12,3.28,CC(=O)OCOC(=O)N(C)N=Nc1ccc(C)cc1
13,2.98,CCc1cccc(CNc2[nH]cnc3ncnc2-3)c1
14,2.7,CCCNc1nc(CCC)nc(N2CCOCC2)n1
15,0.42,CCOC(=O)CCCn1cnc([N+](=O)[O-])n1
16,2.84,Cc1cc2c(C)c3ccc(=O)oc3cc2o1
17,2.05,CC(C)Oc1cccc2nc(N)nc(N)c12
18,-2.35,CC(C)CC(N)C(=O)NC(CO)C(=O)NC(CC(C)C)C(=O)O (stereo not drawn) (H-Leu-Ser-Leu-OH; configuration not given here)
19,-0.76,CC(C)C(NC(=O)C(N)Cc1ccccc1)C(=O)NC(Cc1ccccc1)C(=O)O (stereo not drawn) (H-Phe-Val-Phe-OH; configuration not given here)
20,2.75,CCCCCCCCNCCO
21,4.47,CCCC(=NOCC)C1=C(O)CC2(CC(C)CC(C)C2)OC1=O (centres undefined)
22,1.14,OCCCCCCNc1ncnc2nc[nH]c12

row,logP,Structure (SMILES)
1,3.32,COc1cccc(NC(=O)OCCN2CCCCC2)c1
2,1.9,CC(=NNC(=O)c1ccccc1)c1cnccn1
3,0.87,CC(C)COC(=O)n1cc(F)c(=O)[nH]c1=O
4,-0.04,CCC(C)C(NC(=O)C(CCCNC(=N)N)NC(C)=O)C(=O)NC(Cc1ccccc1)C(N)=O (stereo not drawn) (Ac-Arg-Ile-Phe-NH2; configuration not given here)
5,3.61,CC(C)CCCCNc1[nH]cnc2ncnc1-2
6,4.59,CC1=CCCC(C)C12CCC(C(C)(C)O)C2 (centres undefined)
7,1.76,CC(C)(C)NCc1ccc(S(=O)(=O)c2csc(S(N)(=O)=O)c2)cc1
8,0.6,C/C(=C\CNc1ncnc2[nH]cnc12)CO
9,5.96,ClCC1(C(Cl)Cl)C2CC(Cl)(Cl)C1(C(Cl)Cl)CC2(Cl)Cl (centres undefined)
10,4.49,O[C@@H](c1cc(C(F)(F)F)nc2c(C(F)(F)F)cccc12)[C@H]1CCCCN1
11,5.2,COc1cc2c(Nc3cc(CC(=O)Nc4cccc(F)c4F)[nH]n3)ncnc2cc1OCCCN(CCO)CC(C)C
12,2.9,CC(=NNC(=O)c1cccc(Br)c1)c1cnccn1
13,2.08,OC(CNCc1ccccc1)CON=C(C1CC1)C1CC1 (centres undefined)
14,2.13,CCSSc1ncc[nH]1
15,0.83,CCNc1ccc(NC(=O)N(C)OC)cc1
16,6.13,Clc1ccc2oc3c(Cl)c(Cl)cc(Cl)c3c2c1
17,-1.51,NC(Cc1ccccc1)C(=O)NCC(=O)NCC(=O)NC(Cc1ccccc1)C(=O)O (centres undefined) (H-FGGF-OH; configuration not given here)
18,3.13,Cc1cc(=O)[nH]c2c1cc(C)c1occ(C)c12
19,2.22,Cn1c([N+](=O)[O-])cnc1C1=NOC2CCCCC12 (centres undefined)
20,2.77,Cc1c(C)c2cc3ccoc3cc2oc1=O
21,-0.99,CCC(C)C(N)C(=O)NC(C(=O)NCC(=O)NC(Cc1ccccc1)C(=O)O)C(C)CC (centres undefined) (H-IIGF-OH; configuration not given here)
22,-0.49,Cc1cnc(C(=O)OCCCn2ccc(=O)c(O)c2C)cn1

row,logP,Structure (SMILES)
1,3,O=C1C=C(N2CCCC2)C(=O)N1c1ccc(Cl)cc1
2,1.91,Cc1ccc(Nc2ccncc2S(=O)(=O)NC(=NC#N)NC(C)C)cc1
3,-0.05,CCC(C)C(NC(C)=O)C(=O)NC(Cc1ccccc1)C(=O)NC(CCCNC(=N)N)C(N)=O (stereo not drawn) (Ac-Ile-Phe-Arg-NH2; configuration not given here)
4,2.31,CCn1ccnc1CC1COc2ccccc2O1 (centres undefined)
5,0.63,CS(=O)(=O)c1cccc2nc(N)nc(N)c12
6,2.07,CC(C)CCCNc1ncnc2c1ncn2C1OC(CO)C(O)C1O (centres undefined)
7,1.64,O=C1Nc2ccc3cc4ccccc4nc3c2CO1
8,2.29,CCOP(=O)(OCC)C(C)(C)[N+]([O-])=Cc1ccc(Cl)cc1
9,-2.1,CC(C)CC(N)C(=O)NC(C(=O)NC(C(=O)O)C(C)C)C(C)C (stereo not drawn) (H-Leu-Val-Val-OH; configuration not given here)
10,4.2,CCCCCCC(Nc1ccc([N+](=O)[O-])cc1[N+](=O)[O-])C(=O)O (centres undefined)
11,5.84,Brc1cc2cccc3ccc4cccc1c4c32
12,0.33,Nc1nnnn1-c1ccc(O)cc1
13,1.22,CCCCNCC(C)O (centres undefined)
14,-0.33,NC(=O)c1cccc2nc(N)nc(N)c12
15,1.45,Cc1ccc(C)c(-n2nnnc2N)c1
16,3.53,CCCc1cccc(CNc2[nH]cnc3ncnc2-3)c1
17,-0.7,CC1=C2C3OC(=O)C(C)C3C(O)C(O)C2(C)C=CC1=O (centres undefined)
18,5.49,CC12CC(Cl)(Cl)C(CC1(Cl)Cl)C2(CCl)C(Cl)Cl (centres undefined)
19,-2.83,CC(C)C(N)C(=O)N1CCCC1C(=O)NCC(=O)NC(C(=O)O)C(C)C (centres undefined) (H-VPGV-OH; configuration not given here)
20,5.5,CCOC(=O)c1cn2c(C)c(C)nc2c2c1CCC(c1ccccc1)O2 (centres undefined)
21,-0.97,CC(C)CC(NC(=O)CNC(=O)C(NC(=O)C(Cc1ccccc1)NC(=O)C(N)C(C)C)C(C)C)C(=O)O (centres undefined) (H-VFVGL-OH; configuration not given here)
22,3.04,CCOC(=O)c1c[nH]c2ccccc12

row,logP,Structure (SMILES)
1,5.89,Clc1cc(Cl)c2c(oc3cccc(Cl)c32)c1Cl
2,2.86,COc1cc(Cl)cc(Cl)c1O
3,3.72,CCCc1ccc(CNc2[nH]cnc3ncnc2-3)cc1
4,3.59,CCOc1ccccc1NC(=O)OCCN1CCCCC1
5,-0.8,Nc1nc(F)nc2c1ncn2[C@@H]1O[C@H](CO)[C@@H](O)[C@H]1O
6,3.9,COC(=O)CCSc1ccc2nc(-c3ccc(N(C)C)cc3)cn2c1
7,2,CCCCNc1ncnc2nc[nH]c12
8,5.3,C=CCC1C(=O)N(CCN(C)C)c2ccccc2CC1c1ccc(OC)cc1 (centres undefined)
9,1.05,NC1=NCC(CN2CCC(C(=O)c3ccccc3)CC2)O1 (centres undefined)
10,2.82,Cc1cc(=O)oc2c(C)c3occc3cc12
11,-1.47,CCC(C)C(N)C(=O)NC(C)C(=O)NC(Cc1ccc(O)cc1)C(=O)NC(Cc1c[nH]c2ccccc12)C(=O)NCC(=O)O (centres undefined) (H-IAYWG-OH; configuration not given here)
12,1.93,COC(=O)C(C)NP(=O)(OCC1C=CC(n2cc(C)c(=O)[nH]c2=O)O1)Oc1ccc(I)cc1 (centres undefined)
13,4.22,O=C(NCC(F)(F)F)NS(=O)(=O)c1cnccc1NC1CCCCCCC1
14,1.43,CCOP(=O)(OCC)C(C)(C)[N+]([O-])=Cc1ccc([N+](=O)[O-])cc1
15,4.15,COc1cc(OC)nc(Sc2cccc(Oc3ccccc3)c2C(=O)O)n1
16,3.26,O=C(O)CCCCON=C(c1cccc(C(F)(F)F)c1)c1cnccn1
17,0.91,CC1CCN(CC2CN=C(N)O2)CC1 (centres undefined)
18,2.08,CC(=O)OCOC(=O)N(C)N=Nc1ccc(C#N)cc1
19,3.29,c1ccc(CCCCNc2[nH]cnc3ncnc2-3)cc1
20,-0.27,N[C@@H](Cc1c[nH]c2ccccc12)C(=O)N[C@@H](Cc1c[nH]c2ccccc12)C(=O)O (H-Trp-Trp-OH)
21,3.68,COc1cc(OC)c2c(c1)OC(c1ccc(OC)c(OC)c1)C(OC)C2 (centres undefined)
22,2.26,CCCc1nc(NC(C)C)nc(N2CCOCC2)n1

row,logP,Structure (SMILES)
1,4.04,OC(CNCC(O)C1CCc2cc(F)ccc2O1)C1CCc2cc(F)ccc2O1 (centres undefined)
2,2.75,CC(=O)c1c(C)nc2c3c(c(C(=O)N(C)C)cn12)CCC(c1ccccc1)O3 (centres undefined)
3,0.83,CCCNC(=O)c1cccc2nc(N)nc(N)c12
4,-2.53,CSCCC(N)C(=O)NC(C(=O)O)C(C)C (stereo not drawn) (H-Met-Val-OH; configuration not given here)
5,-1.23,CC(C)CC(NC(=O)C(NC(=O)C(CC(C)C)NC(=O)C(N)C(C)C)C(C)C)C(=O)O (centres undefined) (H-VLVL-OH; configuration not given here)
6,2.21,O=C1c2ccccc2-c2nnc(C(F)(F)F)cc21
7,3.72,c1ccc(CCN2CCN(CCn3nc4ccccc4n3)CC2)cc1
8,1.64,CN1COCc2c1ccc1cc3ccc(N)c(CO)c3nc21
9,4.97,O=C(NC1CCCCCCC1)NS(=O)(=O)c1cnccc1NC1CCCCC1
10,2.68,O=S(=O)(c1ccccc1)C(F)(F)F
11,3.55,O=C(O)CCCCCON=C(c1cccc(C(F)(F)F)c1)c1ccncn1
12,5.1,COc1ccc(C2CC(=O)N(CCN(C)C)c3cccc(C(F)(F)F)c3C2)cc1 (centres undefined)
13,3.17,CCc1ccc(CNc2[nH]cnc3ncnc2-3)cc1
14,4.35,Cc1ccccc1Nc1ccncc1S(=O)(=O)NC(=O)NC1CCCCC1
15,5.5,COC(=O)c1c(N2CCOCC2)c(-c2ccc(Cl)cc2)cn1C(=O)c1ccccc1
16,-0.21,CC(C)C1(C)N=C(c2ncc(CO)cc2C(=O)O)NC1=O (centres undefined)
17,-0.28,C[N+](C)([O-])CCc1ccccc1
18,4.09,Cc1sc2c(C)cc3c(C)cc(=O)oc3c2c1C
19,0.96,COc1cccc(-n2nnnc2N)c1
20,2.14,CC(C)NC(=NC#N)NS(=O)(=O)c1cnccc1Nc1cccc(Cl)c1

row,Structure (SMILES),logP
1,O=C(NP(=O)(N1CC1)N1CC1)c1ccccc1,0.81
2,Cn1c(N)nc2ncc(-c3ccccc3)cc21,2.23
3,CS(=O)c1ccc2c(c1)C(c1ccccc1)=NCC(=O)N2 (centres undefined),0.8
4,Cc1nc([N+](=O)[O-])c(Cl)[nH]1,1.06
5,CCCNC1CCc2c(O)cccc2C1C (centres undefined),2.88
6,COc1cccc2c1CCC(N)C2C (centres undefined),2.26
7,CCCCOC(NC(=O)c1ccccc1O)C(Cl)(Cl)Cl (centres undefined),4.45
8,COc1cc(Cl)ccc1O,2.15
9,CNC(=O)Oc1ccc2c(c1)CC(c1ccc(OC)cc1)C(OC(C)=O)C(=O)N2CCN(C)C (centres undefined),2.31
10,NC1=NCC(COc2cccc(C(F)(F)F)c2)O1 (centres undefined),2.35
11,CN(C)CCc1ccccc1,2.38
